Measurements reported in patent publication US20150165756A1, “STENCILS” (DTG International GmbH, priority 2011, published 2015).
In brackets after ≈: the same amount, converted by molar mass.

Assays:
Type in all cases: physicochemical
[1] = Stability of emulsions with soybean oil/MCT oily component (Example 3); settings: oily component comprising soybean oil and MCT
Method: The oily phase containing the compound (A) was then mixed with an emulsifier (1%-3% by weight) of e.g. Lipoid S 75 Lipoid GmbH Germany, and afterwards with the aqueous phase containing a small amount (2.5% by weight) of a tonicity adjusting agent (Glycerol).
Different compositions were prepared containing about 10% to 20% of the oily component (C) and about 70 to 90% of water. These compositions were mixed by using an Ultra-Turrax-homogenizer followed by one to 10 cycles of high pressure homogenisation. These emulsions prepared are then characterized by microscopic analysis and by dynamic light-scattering methods (Horiba LB 500). Furthermore, laser diffraction experiments were made with the emulsions ([…]) and electro-acoustic experiments were performed (Dispersion Technology DT 300; Malvern Zetasizer Nano ZS).
By using the above-mentioned oily component (comprising soybean oil and MCT), it was possible to prepare stable emulsions of compound (A) containing up to 2 mg of compound (A) per ml of the emulsion. The stability of the emulsions prepared with compound (A) can be described by the Zeta-function which describes the degree of repulsion of particles having similar charges. The Zeta-potential of the emulsions were tested by acoustic and optical methods described in the literature.

[2] = Solubility of compound (A) in aqueous media; settings: room temperature
Method: (6-Bromo-pyrazolo[1,5-a]pyrimidine-2-yl)-(1(R)-methyl-3,4-dihydro-1H-isoquinoline-2-yl)-methanone, and which is of particular interest and has the formula (A) as described above. This compound (A) is the R-enantiomer, but both isomers (R and S) were prepared by classical chemical synthesis. The compound (A) was tested in various compositions (formulations) inter alia for CNS-applications. The compound (A) is a small molecule having a molecular weight of about 360 g/Mol, but is very little soluble in aqueous media at room temperature (about 0.001 to 0.01 mg/ml).

[3] = Maximal solubility in oily components (mixing, PTFE filtration, HPLC analysis); settings: oil or lipid, thermodynamic from solid
Method: As pyrazolopyrimidine component, (6-Bromo-pyrazolo[1,5-a]-pyrimidine-2-yl)-(1(R)-methyl-3,4-dihydro-1H-isoquinoline-2-yl)-methanone was formulated with various oily components with higher concentrations of the drug substance using specific amounts of oily components (C). The following compositions were prepared by mixing the respective oily component (C) and the pyrazolopyrimidine compound, followed by filtration (PTFE-filter) and then analysis by High Performance Liquid Chromatography.
A liquid mixture was prepared by using 100 g of soybean oil and 100 g of MCT. The soybean oil is commercially available by Caelo (Caesar & Lorenz GmbH, Hilden, Germany). The component MCT is also commercially available (e.g. by Caelo). The solubility of compound (A) in this 50:50 (w/w) mixture of two oily components (C1) and (C2) was tested. Three different compositions were prepared (containing 1 mg/ml, 1.5 mg/ml and 2.0 mg/ml) of compound (A).

[4] = Octanol/water partition coefficient (log P)
Excerpt: The octanol/water partition coefficient (log P) of the compounds tested according to this invention can e.g. be determined by accepted standard methods, such as OECD guideline (July 1995), “Test No. 107: Partition Coefficient (n-octanol/water): Shake Flask Method”, OECD Guidelines for the Testing of Chemicals, Section 1: Physical-Chemical properties, OECD Publishing. The log P value may also be determined according to the Draft OECD guideline OECD (2000), see OECD Draft guideline for the Testing of Chemicals: 122 Partition Coefficient (n-Octanol/Water): pH-Metric Method for Ionisable Substances.
Compound (A) can be formulated together with various oily components (C) as aqueous based, liquid compositions with higher concentration of the drug substance. These formulations can be easily applied to different animal species and human beings via application routes like the parenteral route. The compound (A) is a lipophilic compound with limited wettability and solubility in aqueous media. The lipophilicity can be expressed by the log P value, which is approximately 3 for compound (A).

## C[C@@H]1c2ccccc2CCN1C(=O)c1cc2ncc(Br)cn2n1 [Compound (A), (6-Bromo-pyrazolo[1,5-a]pyrimidine-2-yl)-(1(R)-methyl-3,4-dihydro-1H-isoquinoline-2-yl)-methanone]
[1]
  content of compound (A) in stable emulsions: up to 2 mg per ml
[2]
  solubility: 1 to 10 µg/mL (≈ 0.00269 to 0.0269 mM)
[3]; 50:50 (w/w) mixture of soybean oil and MCT, read-out: maximum solubility in mixture of oily components
  solubility: 8000 µg/mL (≈ 21.5 mM)
[3]; 25° C., MCT, read-out: maximal solubility in MCT
  solubility: 12000 µg/mL (≈ 32.3 mM)
[3]; 25° C., castor oil, read-out: maximal solubility in castor oil
  solubility: 47000 µg/mL (≈ 127 mM)
[3]; 25° C., olive oil, read-out: maximal solubility in olive oil
  solubility: 6000 µg/mL (≈ 16.2 mM)
[3]; 25° C., soybean oil, read-out: maximal solubility in soybean oil
  solubility: 7000 µg/mL (≈ 18.9 mM)
[4]
  logP: ~3
